Article PMC5177629, “Selective Estrogen Receptor Modulators: Cannabinoid Receptor Inverse Agonists with Differential CB1 and CB2 Selectivity” (Frontiers in Pharmacology, 2016)
Where two headings read alike, the source gives them in different places. Marks after values point to notes of the source that are not given here.

Tests used:
[1] = target: T1, human cannabinoid type-1 receptors (hCB1) (Homo sapiens, UniProt P21554); test: Competition receptor binding with [3H]CP-55,940, CHO-hCB1 membranes
T1 construct: host or cells: CHO cells (CHO-hCB1), membranes or intact cells
Protocol: (§1) In short, pellets were thawed on ice, combined in a 40 ml glass Dounce homogenizer and homogenized in 20 ml of cold buffer (50 mM HEPES at pH 7.4, 3 mM MgCl2, and 1 mM EGTA) using 10 strokes. Homogenates were then centrifuged at 40,000 × g for 10 min at 4°C. After discarding the supernatant, pellets were homogenized and centrifuged twice more. Final pellets were re-suspended in ice-cold 50 mM HEPES, pH 7.4, aliquoted and stored at -80°C for future use. Protein concentration was determined the same day, prior to freezing, using BCA^TM Protein Assay (Thermo Fisher Scientific, Waltham, MA, USA).
The final volume of each sample was 1 ml, containing 50 mM Tris-HCl buffer (pH 7.4), 0.05% bovine serum albumin, 5 mM MgCl2, increasing concentrations of non-radioactive competing SERM ligands, and either 100 μg of CHO-hCB1 or 50 μg of CHO-hCB2 membrane homogenates. […] Each sample condition was performed in triplicate and allowed to reach equilibrium at room temperature for 90 min. Reactions were terminated by rapid vacuum filtration through Whatman GF/B glass fiber filters (Brandel, Inc.), followed by four 4 ml washes of ice-cold filtration buffer (50 mM Tris at pH 7.4 and 0.05% BSA). Filter punches of individual samples were placed in scintillation vials containing 4 mls of ScintiverseTM BD cocktail scintillation fluid (Fisher Scientific, Pittsburg, PA, USA). Final counts were determined using liquid scintillation spectrophotometry (Tri Carb 2100 TR Liquid Scintillation Analyzer, Packard Instrument Company, Meriden, CT, USA) after overnight incubation.
(§2) Statistical analyses were conducted by utilizing GraphPad Prism v6.0g (GraphPad Software, Inc.; San Diego, CA, USA). IC50 values from competition receptor binding curves were derived by non-linear regression. […] Non-linear regression analysis of concentration-effect curves was also used to determine potency (ED50 or IC50) and efficacy (Emax or Imax) for modulation of GTPγS and adenylyl cyclase activity, respectively. All IC50, EC50, Ki, and Kb values were converted to pEC50, pIC50, pKi, and pKb values in order to permit use of parametric statistical analyses. For all experiments comparing three or more values, an one-way ANOVA was employed, followed by Dunnett’s or Tukey’s post hoc tests. For comparisons of two values, an unpaired t-test was utilized. To determine significant radioligand displacement or modulation of G-protein activity compared to basal levels, a one-sample t-test was employed.
For initial comparison of potential SERM binding to CBRs, 14 commercially available compounds from 5 structurally distinct classes (Figure 1) were subjected to a radioligand binding screen (Figure 2).

[2] = target: T1, human cannabinoid type-1 receptors (hCB1); test: [35S]GTPγS binding, CHO-hCB1 membranes; format: biochemical; conditions: for IMAX, GTPγS Binding (% Basal) CHO-hCB1: maximal reduction of basal G-protein activity
Protocol: as §1
(§3) Non-specific binding was defined by radioactivity remaining in the presence of 10 μM of non-radioactive GTPγS. All reactions were incubated for 30 min at 30°C, terminated by filtration through Whatman GF/B glass fiber filters (Brandel, Inc.) and followed by four 4 ml washes of ice cold filtration buffer (50 mM HEPES, pH 7.4) containing 0.1% bovine serum albumin. Filter punches of individual samples were placed in scintillation vials containing 4 mls of ScintiverseTM BD cocktail scintillation fluid (Fisher Scientific, Pittsburg, PA, USA). Final counts were determined using liquid scintillation spectrophotometry (Tri Carb 2100 TR Liquid Scintillation Analyzer, Packard Instrument Company, Meriden, CT, USA) after overnight incubation.
as §2
(§4) CBRs are coupled to Gi/Go type G-proteins. Therefore, binding of agonists to CBRs leads to G-protein activation, antagonists produce no effect, and inverse agonists reduce basal G-protein activity produced by constitutively active receptors. SERMs were screened by examining the ability of a single receptor saturating concentration (10 μM) to modulate G-protein activity in membranes prepared from CHO-hCB1 and CHO-hCB2 cells. G-protein activation was quantified using employing [^35S]GTPγS, a non-hydrolyzable analog of GTP, that irreversibly binds to the G-proteins when activated.

[3] = target: T1, human cannabinoid type-1 receptors (hCB1); test: Antagonism of CP-55,940 inhibition of adenylyl cyclase, intact CHO-hCB1 cells; format: cell-based; conditions: for IMAX of CP-55,940 after pre-incubation with the drug: CHO-hCB1 cells, pre-incubation 30 min: OSP, NAF, BAZ 10 μM, RAL 2 μM, AM-281 1 μM
Protocol: (§5) Briefly, cells cultured between passages 4 and 15 were seeded into 24-well plates at a concentration of 6.5 million cells per plate and incubated overnight in a humidified incubator maintained at 37°C and 5% CO2. Growth media was removed the next day and replaced with media containing […] [^3H]adenine, 0.9g/L NaCl, and 0.5 mM isobutyl-methyl-xanthine (IBMX) for 2–3 h. Radioactive media was then removed and each well treated with 0.5 ml of varying concentrations of SERM compounds in a Krebs-Ringer-HEPES solution (10 mM HEPES, 110 mM NaCl, 25 mM Glucose, 55 mM Sucrose, 5 mM KCl, 1 mM MgCl2, 1.8 mM CaCl2, pH 7.4) containing 0.5 mM IBMX and 10 μM forskolin. Plates were then floated in a 37°C water bath for 15 min before reactions were terminated by addition of 50 μL of 2.2 N HCl to each well.
Reactions were then terminated by adding 50 μL of 2.2 N HCl to each well. [^3H]cAMP was isolated using alumina column chromatography and radioactivity quantified following addition of 10 mls of scintiverseTM BD cocktail scintillation fluid (Fisher Scientific, Pittsburg, PA, USA) by liquid scintillation spectrophotometry (Tri Carb 2100 TR Liquid Scintillation Analyzer, Packard Instrument Company, Meriden, CT, USA).
as §2
IC50 and Kb values were converted to pIC50 and pKb values (pIC50 = -Log[IC50] or pKb = -Log[Kb], respectively) to allow use of parametric statistics for comparison.

[4] = target: T2, human cannabinoid type-2 receptors (hCB2) (Homo sapiens, UniProt P34972); test: [35S]GTPγS binding, CHO-hCB2 membranes; format: biochemical; conditions: for IMAX, GTPγS Binding (% Basal) CHO-hCB2: maximal reduction of basal G-protein activity
T2 construct: expressed in transfected cells; host or cells: CHO cells (CHO-hCB2), membranes or intact cells
Protocol: as §1, §3, §2, §4

[5] = target: T2, human cannabinoid type-2 receptors (hCB2); test: Adenylyl cyclase assay (forskolin-stimulated cAMP), intact CHO-hCB2 cells; format: cell-based; conditions: for Emax: elevation of cAMP, read-out: EMAX, Intracellular [3H]cAMP; for EC50: increase of cAMP, 10 μM forskolin, read-out: EC50, Intracellular [3H]cAMP
Protocol: as §5, §2
To provide a second measure of intrinsic activity, the ability of SERMs to modulate intracellular levels of cAMP in intact cells was examined (Figure 6). CBRs couple to Gi/Go-proteins, and thus cannabinoid agonists inhibit activity of the downstream intracellular effector adenylyl cyclase, reducing intracellular cAMP levels.

[6] = target: T3, human mu opioid receptors (CHO-hMOR cells) (Homo sapiens, UniProt P35372); test: Adenylyl cyclase assay, CHO-hMOR cells (control not expressing hCB2Rs); format: cell-based; conditions: 10 μM
T3 construct: expressed in transfected cells; host or cells: CHO cells (CHO-hMOR), membranes or intact cells

[7] = reduction of basal G-protein activity, CHO-hCB2 membranes, read-out: IC50, GTPγS Binding CHO-hCB2

T2 sequence (P34972 whole entry): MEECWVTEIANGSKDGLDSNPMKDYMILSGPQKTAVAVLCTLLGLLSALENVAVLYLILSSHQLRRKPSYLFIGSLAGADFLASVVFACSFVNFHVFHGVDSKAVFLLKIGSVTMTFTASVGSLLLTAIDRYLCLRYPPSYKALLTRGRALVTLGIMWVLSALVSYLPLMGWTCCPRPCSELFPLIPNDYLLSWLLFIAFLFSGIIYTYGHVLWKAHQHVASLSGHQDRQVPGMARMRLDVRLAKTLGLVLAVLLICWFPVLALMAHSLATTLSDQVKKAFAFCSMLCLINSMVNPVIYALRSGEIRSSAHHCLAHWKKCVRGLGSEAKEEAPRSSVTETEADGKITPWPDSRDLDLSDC
T1 sequence (P21554 whole entry): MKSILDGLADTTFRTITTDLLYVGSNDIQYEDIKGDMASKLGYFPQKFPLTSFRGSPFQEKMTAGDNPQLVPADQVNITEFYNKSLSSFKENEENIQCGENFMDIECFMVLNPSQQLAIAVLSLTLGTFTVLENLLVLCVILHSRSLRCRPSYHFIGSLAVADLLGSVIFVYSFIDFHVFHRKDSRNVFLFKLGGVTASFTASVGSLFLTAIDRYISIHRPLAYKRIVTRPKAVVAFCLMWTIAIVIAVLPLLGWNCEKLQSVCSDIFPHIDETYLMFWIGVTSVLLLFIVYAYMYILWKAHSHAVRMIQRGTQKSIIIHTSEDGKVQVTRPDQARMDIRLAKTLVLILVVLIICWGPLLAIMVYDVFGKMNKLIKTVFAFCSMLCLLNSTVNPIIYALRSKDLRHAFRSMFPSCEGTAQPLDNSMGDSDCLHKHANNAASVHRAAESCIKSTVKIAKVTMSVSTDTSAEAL
T3 sequence (P35372 whole entry): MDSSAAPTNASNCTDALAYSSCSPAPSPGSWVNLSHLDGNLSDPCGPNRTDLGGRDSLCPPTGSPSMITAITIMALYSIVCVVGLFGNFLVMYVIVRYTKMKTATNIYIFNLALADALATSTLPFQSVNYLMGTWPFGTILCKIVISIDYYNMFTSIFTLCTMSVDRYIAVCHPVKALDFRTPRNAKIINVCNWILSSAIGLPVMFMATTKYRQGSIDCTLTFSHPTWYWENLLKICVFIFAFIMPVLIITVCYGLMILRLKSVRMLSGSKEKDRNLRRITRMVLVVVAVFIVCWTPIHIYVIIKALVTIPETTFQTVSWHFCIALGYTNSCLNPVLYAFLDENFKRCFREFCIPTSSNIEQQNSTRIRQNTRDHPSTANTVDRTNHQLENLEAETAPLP

| Ki ([1]; CHO-hCB1 membranes, Cheng-Prusoff from IC50) | Selectivity (CB1/CB2) ([1]; ratio of Ki hCB1 / Ki hCB2) | IC50 ([2]; reduction of basal G-protein activity, CHO-hCB1 membranes, read-out: IC50, GTPγS Binding CHO-hCB1) | Kb ([3]; read-out: Kb (antagonist dissociation constant), CHO-hCB1) | IC50 ([4]; CHO-hCB2 membranes, mean ± SEM, read-out: pIC50, GTPγS Binding CHO-hCB2 (converted)) | SMILES | Ki [1] | displacement of [3H]CP-55,940 from hCB1Rs ([1]; single 1 μM concentration, 0.2 nM [3H]CP-55,940, CHO-hCB1) | IC50 [2] | reduction of basal G-protein activity, hCB1Rs ([2]; CHO-hCB1 membranes, 10 μM) | IMAX, GTPγS Binding (% Basal) CHO-hCB1 [2] | Kb [3] | IMAX of CP-55,940 after pre-incubation with the drug [3] | reduction of G-protein activity, hCB2Rs ([4]; CHO-hCB2 membranes, 10 μM) | IMAX, GTPγS Binding (% Basal) CHO-hCB2 [4] | IC50 [4, 7] | Emax [5] | EC50 [5] | effect on basal cAMP levels, CHO-hMOR cells [6] |
| --- | --- | --- | --- | --- | --- | --- | --- | --- | --- | --- | --- | --- | --- | --- | --- | --- | --- | --- |
| – | – | – | – | – | OCCOc1ccc(/C(=C(/CCCl)c2ccccc2)c2ccccc2)cc1 [OSP, ospemifene] | 753 nM | approximately 50% | 170 nM | ~30% | 30.3 ± 2.0^a % | 173 nM | 43.8 ± 2.7% | ~30% | 39.7 ± 2.4^a,∗∗ % | 558 nM | 279 ± 17% | 1440 nM | – |
| – | – | – | – | – | Cc1c(-c2ccc(O)cc2)n(Cc2ccc(OCCN3CCCCCC3)cc2)c2ccc(O)cc12 [BAZ, bazedoxifene] | – | – | – | – | – | – | – | – | 34.0 ± 1.0^b,∗ % | 71.6 nM | 352 ± 14% | 1980 nM | only slightly altered |
| 957 nM | 0.74 | 524 nM | 1160 nM | 344 nM | COc1ccc2c(c1)CCC(c1ccccc1)=C2c1ccc(OCCN2CCCC2)cc1 [NAF, nafoxidine] | – | – | – | – | 31.7 ± 1.5^a % | – | 38.3 ± 1.7% | – | 38.7 ± 1.2^a,b,∗∗ % | – | – | – | – |
| – | – | – | – | – | O=C(c1ccc(OCCN2CCCCC2)cc1)c1c(-c2ccc(O)cc2)sc2cc(O)ccc12 [RAL, raloxifene] | – | – | – | – | – | – | – | – | 34.3 ± 2.2^b,∗∗ % | 87.1 nM | 234 ± 21% | 873 nM | – |
